Test results: patent US10781444B2, “Functional genomics using CRISPR-Cas systems, compositions, methods, screens and applications thereof” (THE BROAD INSTITUTE, INC., priority 2013, dated 2020)

Legend:
[1] = system: on-target and off-target genomic loci (NF2, NF1, MED12 and other top-ranking genes); assay: Deep sequencing of on-target and off-target loci for allele modification in A375 cells; type: cell-based, human; conditions: 7 and 14 days post-transduction
Excerpt: Applicants validated top ranking genes from the GeCKO screen individually using 3-5 sgRNAs (FIGS. 28C-E, 38, 39). […] Applicants compared sgRNA and shRNA-mediated protein depletion and PLX resistance using Western blot (FIG. 28D) and cell growth assays (FIG. 28E). […] Additionally, sgRNAs targeting NF1, MED12, CUL3, TADA1, and TADA2B led to a decrease in protein expression and increased resistance to PLX (FIGS. 38, 39).
Screening timeline considerations: After infection, cells are selected with puromycin. For most cell types, 0.5-2 ug/ml puromycin works well, although the minimum dose that kills all cells without any viral transduction should be determined in advance and the minimum concentration should be used for selection. […] As shown in the deep sequencing of the individual target (array) validations from the PLX resistance screen gene hits, genome modification increases over time. For most targets, genome modification was nearly complete after only 7 days.
Sequencing data analysis and indel detection: Off target loci in the human genome were identified for individual spacers using the CRISPR design tool (available at the website tools.genome-engineering.org). On-target and off-target loci were PCR amplified using Herculase II Fusion polymerase (Agilent), normalized, and pooled in equimolar proportions. Pooled libraries were denatured, diluted to a 14 pM concentration and sequenced using the MiSeq Personal Sequencer (Illumina). Sequencing data was demultiplexed using paired barcodes, aligned to reference amplicons, and analyzed for indels as described previously. Indel length analysis was performed by mapping the distance between multiple short reference sequences in individual reads.

human EMX1 locus = assay: Surveyor nuclease assay for genome modification at the human EMX1 locus in HEK 293FT cells; type: cell-based; conditions: co-expression with EMX1-targeting chimeric crRNA, n=3
Experimental: Mouse neuro2A (N2A) cell line (ATCC) was maintained with DMEM supplemented with 5% fetal bovine serum (HyClone), 2 mM GlutaMAX (Life Technologies), 100 U/mL penicillin, and 100 μg/mL streptomycin at 37° C. with 5% CO2.
Cells were transfected using Lipofectamine 2000 (Life Technologies) following the manufacturer's recommended protocol. For each well of a 24-well plate a total of 800 ng of plasmids were used.
Genomic DNA was extracted using the QuickExtract DNA extraction kit (Epicentre) following the manufacturer's protocol. […] Extracted genomic DNA was immediately processed or stored at −20° C.
The genomic region surrounding a CRISPR target site for each gene was PCR amplified, and products were purified using QiaQuick Spin Column (Qiagen) following manufacturer's protocol. […] After re-annealing, products were treated with Surveyor nuclease and Surveyor enhancer S (Transgenomics) following the manufacturer's recommended protocol, and analyzed on 4-20% Novex TBE poly-acrylamide gels (Life Technologies). […] Quantification was based on relative band intensities, as a measure of the fraction of cleaved DNA.

Substance	off-target modification over time [1]	other results
MED12_sg2: sgRNA 20 bp sequence CGTCAGCTTCAATCCTGCCA (expressed or natural sequence)	off-target modification also increases with time	–
NF2_sg4: sgRNA 20 bp sequence GTACTGCAGTCCAAAGAACC (expressed or natural sequence)	off-target modification also increases with time	–
NF2_sg5: sgRNA 20 bp sequence CACAGTGGCCTGGCTCAAAA (expressed or natural sequence)	–	on-target genome modification over time [1]: lower modification that increased by 14 days post-transduction
SpCas9n: SpCas9 nickase with aspartate-to-alanine substitution (D10A) in the RuvC I catalytic domain	–	indels at the EMX1 protospacer target (Surveyor assay) (human EMX1 locus): does not generate indels
